Experimental findings from US11447638B2, “Acetalanthraquinone derivatives useful for cellular staining” (BIOSTATUS LIMITED, priority 2016, dated 2022) are described below.

The subject of one series is A549 cells. Kind of series: Flow cytometry analysis of cell uptake before/after hydrolysis. The series is classed as cell-based, human. The conditions noted are these: 20 μM, 30 min, solution: media. As for the experimental part:
Flow cytometry analysis was performed to evaluate the effect of pre-treatment with HCl to generate an active aldehyde on the cell uptake properties. A549 cells were incubated for 30 min with compounds of Formula (I) and its hydrolysed forms (20 μM) prior to analysis. The rate of uptake was tested in A549 cell culture media and in Aldefluor buffer, containing the MDR-blocker verapamil (Pearce and Bonnet 2007), to evaluate the effect in uptake with/without the Aldefluor assay system. Analysis was conducted in the viable subset of cells, corresponding to ˜95% of the total amount under investigation.
Aldefluor buffer contained verapamil vs. cell media. The cells were incubated with 20 μM of the respective AAQ/HAAQs (30 min) before analysis
Statistical analysis of A549 uptake before/after hydrolysis was also studied. Experiments were performed in cell media versus Aldefluor buffer. Data were processed using FlowJo software (Tree Star). DRAQ5 was used to set the dynamic range and as control dye and empty cells were used to determine auto-fluorescence.

Series [1] can be described thus: Absorption and fluorescence spectra of compounds in PBS or HEPES. The series is classed as physicochemical. The conditions noted are these: for fluorescence emission, 540 nm (Ex in PBS): excited at 540 nm; for fluorescence emission, 540 nm (Ex in PBS) / fluorescence emission, λ1 nm (Ex in HEPES) / fluorescence emission, λ1 nm (Ex in PBS): 20 μM; for fluorescence emission, λ1 nm (Ex in HEPES) / fluorescence emission, λ1 nm (Ex in PBS): excited at absorption peak 1 (λ1); for peak excitation wavelength: excitation wavelength used for fluorescence spectra of FIG. 1A/1B. The protocol: The compounds were exited at 540 nm and at the wavelength of their absorption peak 1 (λ1 nm). The far-red fluorescent DNA dye DRAQ5 was used as reference.
Compounds were dissolved in DMSO (Sigma) to 20 mM stock concentration. DRAQ5 (Biostatus Ltd) was used as a control anthraquinone agent dissolved in deionised water. Working solutions were prepared in PBS (phosphate buffered saline; Sigma) or HEPES (4-(2-hydroxyethyl)-1-piperazineethanesulfonic acid; Sigma) at 20 or 40 μM. Probe solutions (20 μM), respectively in PBS or HEPES, were pipetted into a 1 mL quartz cuvette (Thermo Fisher Scientific). After obtaining baseline spectra in relevant buffer to zero the instrument, absorbance measurements were obtained using a Beckmann Coulter DU 800 UV/Visible spectrophotometer. The excitation wavelengths were scanned from 280 to 800 nm. Fluorescent spectral scans were performed using a Perkin Elmer LS-50B Luminescence spectrophotometer. To obtain emission scans, the excitation wavelength was set accordingly to the maximum values for each agent or another designated excitation wavelength that matches typical laser lines; and the emission wavelength were scanned from 400 nm to 900 nm in 1 nm increments. A Xenon flash lamp was used as the light source, with the lamp energy set to high. For each data point ten measurements were acquired with the photomultiplier tube sensitivity set at 125.
Compounds were excited at a wavelength corresponding to the first absorbance peak 1 (FIG. 1A and FIG. 1B show absorption (line) and fluorescence (dots) spectra of compounds; both are normalised to peak value.

The next series has as its system U-2 OS cells. As to the kind of experiment: Confocal laser scanning microscopy (CLSM) localisation analysis. The series is classed as cell-based, human. The conditions noted are these: 30 min incubation, Ex 637 nm, Em >665 nm, FIG. 4 and 5. The protocol:
Confocal laser scanning microscopy (CLSM) was used to analyse the localisation of compounds BST-100, BST-101 and BST-106 with the U-2 OS cells, as it permitted the acquisition of volume limited optical sections through the cell and media. Excitation (637 nm) and emission (>665 nm) values for the probe analysis were the optimal conditions. The data sets obtained were processed and assembled into a single maximum projection image.
The patterns were analysed after 30 min incubation at different z depths and eliminating the solution background. The nucleus/cytoplasm ratio was calculated to quantify the localisation of the probe per cell.
A Radiance CLSM (BioRad Microscience) was used attached to an inverted Nikon microscope. Image acquisition was performed using excitation (637 nm) and emission (>665 nm) wavelengths. The histogram plot reports the nucleus/cytoplasm index to determine DNA binding in live cells. The calibration bar represents 10 μm.
The compounds BST-108, BST-109 were analysed in the same way.

For another series, the system named is A549 live cells. As to the kind of experiment: Loading of A549 live cells, wide-field fluorescence microscopy. In kind it is cell-based, human. The following applies: 20 μM, 30 min incubation, FIG. 3. The protocol:
Before analysis, cells were incubated at 37° C. in the dark for the period designated. Samples were analysed directly without any further washing step. For live cell labelling cells were seeded, plated in a similar way, into a similar multi-well dish for optimal optical performance and could be used across all microscope platforms.
This basic protocol was the standard for testing the patterns of AAQ agents at 20 μM, compared to 20 μM of DRAQ5 as the benchmark reference (both in terms of cellular location and ability to detect the red fluorescence).
Low resolution wide-field fluorescence microscopy was used to evaluate cell uptake and localisation of the probe compounds. The system was an Axiovert 100 microscope (Carl Zeiss, Welwyn Garden City, UK) ×10 0.3 NA air objective lens and an ORCA-ER CCD camera (Hamamatsu, Reading, UK). Illumination was controlled by a shutter in front of the transmission lamp. Image capture was controlled using Metamorph software. Human non-small cell lung cancer A549 cell line was used as the cell model to determine whether variation of the probe loading and localisation occurred in cell population sustaining a “side population” (SP) (Smith P J, Wiltshire M, Chappell S C, Cosentino L, Burns P A, Pors K, Errington R J. Kinetic analysis of intracellular Hoechst 33342—DNA interactions by flow cytometry: misinterpretation of side population status? Cytometry A 2013; 83:161-9) with a known capacity to efflux xenobiotic molecules, including the DNA dye Hoechst 33342.
Cells were incubated for 30 min with each compound and then images were collected at a 30 ms exposure time using low resolution wide-field fluorescence microscopy. Using an Axiovert 100 microscope (Carl Zeiss, Welwyn Garden City, UK) ×10 0.3 NA air objective lens and an ORCA-ER CCD camera (Hamamatsu, Reading, UK). Illumination was controlled by a shutter in front of the transmission lamp. Image capture was controlled using Metamorph software. The calibration bar represents 50 μm.

For a further series, the system named is MCF7. As to the kind of experiment: MTT cellular viability (growth inhibition) assay, MCF7. The conditions noted are these: Homo sapiens, 0.25-100 μM, 72 h, Table 3. The series is classed as cell-based. The protocol:
(§1) The viability of A549 or MCF7 in response to compounds was determined using the MTT (3-(4,5-dimethylthiazolyl-2-)-2, 5-diphenyltetrazolium bromide) assay according to the protocol set out in Mosmann T., Rapid colorimetric assay for cellular growth and survival: application to proliferation and cytotoxicity assays. Journal of immunological methods 1983; 65:55-63.
(§2) Initially, cells were seeded into a rounded-bottom 96 well plate (Corning) at six different cell seeding densities (0.5×104, 1×104, 2×104, 3×104, 4×104, and 5×104) per mL of R10 media (cells/mL) in order to optimise the assay and establish the most suitable seeding assay. Concentration of 1×10^4 cells/mL was determined to be the optimum seeding density for both cell lines for 96 h total incubation. A control lane contained supplemented R10 only. The 96 well plates were incubated overnight at 37° C., 5% CO2 and 100% humidity to allow cell adhesion. Cells were then treated respectively with novel AAQs (0.25-100 μM) or growth inhibition (IC50) of compounds of the invention was studied against MCF7 and A549 cancer cell lines. Compounds were tested with a concentration range between 0.25 and 100 μM for 72 h and doxorubicin, as positive cytotoxic control, was tested in parallel at the same doses.

Another series has as its system A549. As to the kind of experiment: MTT cellular viability (growth inhibition) assay, A549. The following applies: Homo sapiens, 0.25-100 μM, 72 h, Table 3. The series is classed as cell-based. As for the experimental part: as §1, §2

Regarding `CN(C)CCNc1ccc(O)c2c1C(=O)c1c(O)ccc(NCCN(C)C)c1C2=O` [DRAQ5, reference compound], the “Median (fluorescence, uptake)” value with A549 cells is listed as 217.4. The “% ile (25)” value in the series with A549 cells (low loader cell population) stood at 191.27. Besides, in series [1], the “fluorescence emission, 540 nm (Ex in PBS)” value was 635 nm; the “fluorescence emission, λ1 nm (Ex in HEPES)” value is reported as more than 665 nm; the “fluorescence emission, λ1 nm (Ex in PBS)” value is given as more than 665 nm.

Consider `COC(CCCCNc1ccc(NCCCCC(OC)OC)c2c1C(=O)c1c(O)ccc(O)c1C2=O)OC` [BST-100, 1,4-Bis(5,5-dimethoxypentylamino)-5,8-dihydroxyanthracene-9,10-dione], for which the “subcellular localisation by CLSM” value with U-2 OS cells is “low levels of probe in the perinuclear region, with probable overload in Golgi body and large vesicles”. In series [1], the peak excitation wavelength worked out at 584 nm; the “fluorescence emission, λ1 nm (Ex in HEPES)” value is given as 740 nm; the “fluorescence emission, λ1 nm (Ex in PBS)” value is 747.5 nm.

For the compound `COC(CN(C)CCNc1ccc(NCCN(C)CC(OC)OC)c2c1C(=O)c1c(O)ccc(O)c1C2=O)OC` [BST-201, 1,4-bis((2-((2,2-dimethoxyethyl)(methyl)amino)ethyl)amino)-5,8-dihydroxyanthracene-9,10-dione], in series [1], the “fluorescence emission, 540 nm (Ex in PBS)” value is 684 nm; the “fluorescence emission, λ1 nm (Ex in HEPES)” value was 684 nm; the “fluorescence emission, λ1 nm (Ex in PBS)” value turned out to be 690.5 nm. In addition, the “staining pattern in live cells” value in the series with A549 live cells was “perinuclear accumulation”.

For orientation: IC50 means the midpoint of a concentration-inhibition curve. Higher therefore signals a need for much substance. As for `COc1cccc2c1C(=O)c1c(O)c3c(c(O)c1C2=O)C[C@@](O)(C(=O)CO)C[C@@H]3O[C@H]1C[C@H](N)[C@H](O)[C@H](C)O1` [Doxorubicin, doxorubicin, reference compound], the half-maximal inhibitory concentration (IC50) worked out at 0.028 µM with MCF7 and 0.05 µM with A549.

As to `COC(CCCCNc1ccc(NCCN(C)C)c2c1C(=O)c1c(O)ccc(O)c1C2=O)OC` [BST-107, 1-(5,5-Dimethoxypentylamino)-4-(2-(dimethylamino)ethylamino)-5,8-dihydroxyanthracene-9,10-dione], the half-inhibitory concentration (IC50) in the series with MCF7 came to 1.66 µM; with A549, 17.5 µM.

Consider `COC(CNC(=O)CCNc1ccc(NCCC(=O)NCC(OC)OC)c2c1C(=O)c1c(O)ccc(O)c1C2=O)OC` [BST-104, 3,3′-(5,8-dihydroxy-9,10-dioxo-9,10-dihydroanthracene-1,4diyl)bis(azanediyl)bis(N-(2,2-dimethoxyethyl)propanamide)], for which, in series [1], the “fluorescence emission, 540 nm (Ex in PBS)” value amounted to 712 nm; the “fluorescence emission, λ1 nm (Ex in HEPES)” value is recorded as 726 nm; the “fluorescence emission, λ1 nm (Ex in PBS)” value stood at 684 nm.

Take `COC(CN(CCNc1ccc(NCCN(Cc2ccccc2)CC(OC)OC)c2c1C(=O)c1c(O)ccc(O)c1C2=O)Cc1ccccc1)OC` [BST-202, 1,4-bis((2-(benzyl(2,2-dimethoxyethyl)amino)ethyl)amino)-5,8-dihydroxyanthracene-9,10-dione]: the “fluorescence emission, λ1 nm (Ex in HEPES)” value in series [1] stood at 680 nm.

Regarding `COC(CNC(=O)CCNc1ccc(NCCC(=O)NCC(OC)OC)c2c1C(=O)c1ccccc1C2=O)OC` [BST-102, 3,3′-(9,10-Dioxo-9,10-dihydroanthracene-1,4-diyl)bis(azanediyl)bis(N-(2,2-dimethoxyethyl)propanamide)], the IC50 with MCF7 turned out to be 1.75 µM. The same compound yielded an IC50 with A549 of more than 100 µM. Also, in series [1], the peak excitation wavelength was determined as 585 nm; the “fluorescence emission, 540 nm (Ex in PBS)” value amounted to 670 nm; the “fluorescence emission, λ1 nm (Ex in HEPES)” value is 663 nm; the “fluorescence emission, λ1 nm (Ex in PBS)” value is on record as 661 nm.
